{
  "source": "paper PMC8146336",
  "about": "“The Mechanisms of Thiosulfate Toxicity against Saccharomyces cerevisiae” (Antioxidants, 2021)",
  "molecular_target": "T1, cytochrome c oxidase (Saccharomyces cerevisiae, UniProt P00401+P00410)",
  "T1 construct": "gene COX1; native complex IV in whole sulfur-starved yeast cells; not purified; with Cytochrome c oxidase subunit 3; Cytochrome c oxidase subunit 4, mitochondrial; Cytochrome c oxidase subunit 5A, mitochondrial; Cytochrome c oxidase subunit 6, mitochondrial; Cytochrome c oxidase subunit 7, mitochondrial; Cytochrome c oxidase subunit 8, mitochondrial; Cytochrome c oxidase subunit 9, mitochondrial; Cytochrome c oxidase subunit 12, mitochondrial; Cytochrome c oxidase subunit 13, mitochondrial",
  "assay": "oxygen consumption of whole cells with TMPD/ascorbate as electron donor",
  "format": "cell-based",
  "conditions": "10 mM thiosulfate, 12.5 mM ascorbate, 1.4 mM TMPD, PBS, sulfur-starved cells OD600 10; CuB binding only proposed",
  "data": [
    {"smiles": "O=S(O)(O)=S", "note": "[thiosulfate]", "values": [
      {"measurement": "inhibition at 10 mM", "value": "In the assay, thiosulfate inhibited cytochrome c oxidase (Figure 5E)"}
    ]}
  ]
}
